Results as given in patent publication US10828279B2, “Prophylactic and/or therapeutic drug for diabetic nephropathy” (HuBit genomix, Inc., priority 2018, dated 2020).

Columns and labels:
UUO mice = experiment: Unilateral ureter obstruction (UUO) mouse renal tubulointerstitial fibrosis model, Sirius Red staining; type: in vivo; settings: UUO+Palo vs UUO; palovarotene 1 mg/kg i.p. for 6 days, day 7 after ureter ligation
Description: Unilateral ureter obstruction (UUO) model is a model in which renal interstitial fibrosis is induced by feeding for seven days under ureter ligation. Briefly, the kidney of a mouse is exposed extraperitoneally by a unilateral dorsal incision. Then, ureter ligation is performed at 2 to 3 spots at intervals of 1 mm with surgical suture, which leads to decreased renal blood flow and glomerular filtration rate. Further, macrophages infiltrate into the tubulointerstitium, apoptosis of tubular epithelial cells occurs, and increase of fibroblasts and extracellular matrix protein progresses in the interstitium, which leads to interstitial fibrosis. In this model, fibrosis is evoked in a short period of time and there is no complication of uremia since no toxic substance is used. Thus, this is an interstitial fibrosis model with high reproducibility. A UUO model was established using 10-12 week-old ICR mice (purchased from CLEA Japan). […] UUO group consists of mice which were kept for 7 days under ureter ligation to thereby induce renal interstitial fibrosis. Palovarotene group consists of mice which received intraperitoneal administration of palovarotene (1 mg/kg) for 6 consecutive days starting from one day after UUO treatment. Mice in each group were dissected 7 days after UUO treatment, followed by histological evaluation of the kidney by Sirius Red staining.

BMP4 = experiment: RT-quantitative PCR of BMP4 mRNA expression in AGE-stimulated cultured mouse mesangial cells; type: cell-based; settings: for BMP4 (%): relative value, AGE 300 μg/ml+Palovarotene 0.5 μM = 100%
Description: (§1) The glomeruli were isolated from four-week-old wild-type C57BL/6J mice according to the method of Davies M. et al. (Kidney Int. 1994; 45(2):320-7)^36 with necessary modifications and primary culture of the glomeruli was conducted in order to establish mouse mesangial cell strains. AGEs used for cell stimulation were prepared according to the method of Doi T. et al. (Proc, Natl. Acad. Sci. U.S.A. 1992; 89:2873-2877)^37 with necessary modifications. The cultured mouse mesangial cells were grown to confluence, subjected to serum starvation using Opti-MEM (Invitrogen). Then, the cells were treated with (1) no stimulation, (2) AGE 300 μg/ml; (3) AGE 300 μg/ml+palovarotene 0.5 μM; or (4) AGE 300 μg/ml+palovarotene 1 μM. Twenty-four hours after the treatment, RNA extraction was performed by AGPC method. RT-quantitative PCR was performed with the resultant RNA, followed by evaluation of mRNA expression levels by the comparative Ct method (ΔΔ Ct method).

[1] = tested on: streptozocin-induced diabetic mice; experiment: Histological evaluation of the kidney in STZ-induced diabetic mice on high fat diet; type: in vivo, mouse; settings: DM+Palo vs DM; palovarotene 60 μg/kg i.p. twice a week, 12 weeks
Description: Streptozocin (Wako) was administered to 12-15 week-old ICR mice (purchased from CLEA Japan) intraperitoneally (I.P.) for five consecutive days at 50 mg/kg per injection to thereby evoke diabetes. Four weeks after the STZ administration, mouse diet was changed to a high fat diet HFD60 (Oriental Yeast) and, at the same time, intraperitoneal administration of palovarotene at 60 μg/kg twice a week was started. Twelve weeks later, the mice were dissected, followed by histological evaluation.

TGF-β1 = experiment: RT-quantitative PCR of TGF-β1 mRNA expression in AGE-stimulated cultured mouse mesangial cells; type: cell-based; settings: for TGF-β1 (%): relative value, AGE 300 μg/ml+Palovarotene 0.5 μM = 100%
Description: as §1

[2] = tested on: Col4α1 (type IV collagen); experiment: RT-quantitative PCR of Col4α1 (type IV collagen) mRNA expression in AGE-stimulated cultured mouse mesangial cells; type: cell-based; settings: for Col4α1 (%): relative value, AGE 300 μg/ml+Palovarotene 0.5 μM = 100%
Description: as §1

[3] = AGE 300 μg/ml + compound 0.5 μM, 24 h
[4] = AGE 300 μg/ml + compound 1.0 μM, 24 h
[5] = Example 4, 0.5 and 1.0 μM, AGE 300 μg/ml, comparison with palovarotene

## CC1(C)CCC(C)(C)c2cc(Cn3cccn3)c(/C=C/c3ccc(C(=O)O)cc3)cc21 [Palovarotene, 4-[(E)-2-[5,5,8,8-tetramethyl-3-(pyrazol-1-ylmethyl)-6,7-dihydronaphthalen-2-yl]ethenyl]benzoic acid]
UUO mice
  degree of staining of the tubulointerstitium with Sirius Red: clearly lower than that in the kidney tissue of UUO mice
  tubulointerstitial fibrosis: markedly inhibits
BMP4; [3]
  BMP4 (%): 100%
BMP4; [4]
  BMP4 (%): 60%
BMP4; AGE 300 μg/ml + palovarotene 0.5 or 1 μM, 24 h, FIG. 2B
  BMP4 expression increased by AGE stimulation: clearly inhibited by palovarotene in a dose dependent manner
BMP4; [5]
  inhibitory effect on BMP4 expression (in words): dose-dependent inhibitory effect
BMP4; palovarotene 1 μM, AGE 300 μg/ml, 24 h, FIG. 2B
  inhibition of BMP4 expression increased by AGE stimulation: almost complete
[1]
  Smad1 activation (pSmad1): inhibition of Smd1 activation
  WT1 expressed in the podocyte nuclei (WT1): inhibition of reduction of WT1
  expansion of the glomerular mesangial area (PAS staining): inhibition of expansion of the glomerular mesangial area
  nephrin-expressing area in glomerular podocytes (Nephrin): inhibition of reduction of nephrin-expressing area
  phosphorylation of Smad2/3: strongly inhibited
  type IV collagen expression (Col4): reduction of type IV collagen expression
TGF-β1; [3]
  TGF-β1 (%): 100%
TGF-β1; [4]
  TGF-β1 (%): 70%
TGF-β1; AGE 300 μg/ml + palovarotene 0.5 or 1 μM, 24 h, FIG. 2A
  TGF-β expression increased by AGE stimulation: strongly inhibited
TGF-β1; [5]
  inhibitory effect on TGF-01 expression (in words): dose-dependent inhibitory effect
[2]; [3]
  Col4α1 (%): 100%
[2]; [4]
  Col4α1 (%): 50%
[2]; [5]
  inhibitory effect on Col4α1 (type IV collagen) expression (in words): dose-dependent inhibitory effect
[2]; palovarotene 0.5 μM, AGE 300 μg/ml, 24 h, FIG. 2C
  production of Col4α1 (type IV collagen) increased by AGE stimulation: completely inhibited
